Results taken from ChEMBL document CHEMBL4334526, “Synthesis of Peptoid-Based Class I-Selective Histone Deacetylase Inhibitors with Chemosensitizing Properties” (J Med Chem, 2019).

Experiments:
Histone deacetylase 4 = Histone deacetylase 4 (Homo sapiens, UniProt P56524); assay: Inhibition of recombinant human N-terminal GST-fused and C-terminal His-tagged HDAC4 (627 to 1084 residues) expressed in baculovirus infected insect cells using Boc-Lys(TFa)-AMC as substrate preincubated for 5 mins followed by substrate addition and measured after 90 mins by fluorescence assay
Histone deacetylase 4, sequence (P56524 whole entry, the tested form may be a part): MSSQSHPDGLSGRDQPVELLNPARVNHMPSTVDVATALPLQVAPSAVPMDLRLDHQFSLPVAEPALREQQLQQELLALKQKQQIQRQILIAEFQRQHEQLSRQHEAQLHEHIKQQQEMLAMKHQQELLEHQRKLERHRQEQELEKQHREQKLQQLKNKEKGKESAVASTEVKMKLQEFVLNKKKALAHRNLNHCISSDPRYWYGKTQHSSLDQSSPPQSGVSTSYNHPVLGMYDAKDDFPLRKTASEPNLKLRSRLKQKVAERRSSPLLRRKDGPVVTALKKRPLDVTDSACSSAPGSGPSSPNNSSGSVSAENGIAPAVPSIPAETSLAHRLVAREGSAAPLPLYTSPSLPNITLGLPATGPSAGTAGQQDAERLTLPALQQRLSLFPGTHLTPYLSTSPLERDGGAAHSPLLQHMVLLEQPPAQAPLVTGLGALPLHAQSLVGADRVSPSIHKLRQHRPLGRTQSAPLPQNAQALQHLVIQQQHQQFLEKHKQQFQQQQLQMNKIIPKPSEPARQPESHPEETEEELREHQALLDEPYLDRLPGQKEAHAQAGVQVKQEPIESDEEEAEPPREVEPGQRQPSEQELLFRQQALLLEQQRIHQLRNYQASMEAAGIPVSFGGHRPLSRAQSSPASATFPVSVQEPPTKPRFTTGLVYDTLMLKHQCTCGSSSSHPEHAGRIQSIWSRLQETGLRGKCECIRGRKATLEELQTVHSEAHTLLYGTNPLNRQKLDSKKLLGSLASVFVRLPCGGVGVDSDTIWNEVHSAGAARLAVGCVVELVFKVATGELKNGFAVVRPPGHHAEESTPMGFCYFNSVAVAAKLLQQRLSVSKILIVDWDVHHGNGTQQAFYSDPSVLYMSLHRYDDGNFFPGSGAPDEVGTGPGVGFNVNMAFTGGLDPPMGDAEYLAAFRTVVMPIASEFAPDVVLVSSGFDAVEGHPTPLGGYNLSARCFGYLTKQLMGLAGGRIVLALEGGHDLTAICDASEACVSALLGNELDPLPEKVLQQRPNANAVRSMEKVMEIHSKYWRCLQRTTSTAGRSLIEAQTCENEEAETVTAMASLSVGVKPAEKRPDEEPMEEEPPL

Histone deacetylase [1] = assay: Inhibition of HDAC in human A2780 cells using Boc-Lys(epsilon-Ac)-AMC as substrate preincubated for 18 hrs followed by substrate addition and measured after 3 hrs by fluorescence assay; type: cell-based
Histone deacetylase 8 = biological target: T1, Histone deacetylase 8 (Homo sapiens, UniProt Q9BY41); assay: Inhibition of recombinant human C-terminal His-fusion tagged/N-terminal Strep-2 tagged HDAC8 (1 to 377 residues) expressed in insect cells using Boc-Lys(TFa)-AMC as substrate preincubated for 5 mins followed by substrate addition measured after 90 mins by fluorescence assay
T1 sequence (Q9BY41 whole entry): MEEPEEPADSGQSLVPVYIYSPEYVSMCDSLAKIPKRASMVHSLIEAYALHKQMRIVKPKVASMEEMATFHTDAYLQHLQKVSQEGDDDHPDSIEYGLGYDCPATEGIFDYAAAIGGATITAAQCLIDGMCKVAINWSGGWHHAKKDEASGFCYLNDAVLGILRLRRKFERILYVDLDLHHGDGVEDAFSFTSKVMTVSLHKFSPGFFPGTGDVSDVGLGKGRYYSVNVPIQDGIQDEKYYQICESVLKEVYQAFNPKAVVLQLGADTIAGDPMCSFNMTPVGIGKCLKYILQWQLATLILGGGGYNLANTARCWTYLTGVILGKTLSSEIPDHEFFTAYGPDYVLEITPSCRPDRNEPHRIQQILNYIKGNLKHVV

Histone deacetylase [2] = assay: Inhibition of HDAC in human CAL27 cells using Boc-Lys(epsilon-Ac)-AMC as substrate preincubated for 18 hrs followed by substrate addition and measured after 3 hrs by fluorescence assay; type: cell-based
[3] = biological target: T2, Protein deacetylase HDAC6 (Homo sapiens, UniProt Q9UBN7); assay: Inhibition of human full length N-terminal GST-tagged HDAC6 expressed in baculovirus infected Sf9 insect cells ZMAL as substrate incubated for 90 mins by fluorescence assay; type: cell-based
T2 sequence (Q9UBN7 whole entry): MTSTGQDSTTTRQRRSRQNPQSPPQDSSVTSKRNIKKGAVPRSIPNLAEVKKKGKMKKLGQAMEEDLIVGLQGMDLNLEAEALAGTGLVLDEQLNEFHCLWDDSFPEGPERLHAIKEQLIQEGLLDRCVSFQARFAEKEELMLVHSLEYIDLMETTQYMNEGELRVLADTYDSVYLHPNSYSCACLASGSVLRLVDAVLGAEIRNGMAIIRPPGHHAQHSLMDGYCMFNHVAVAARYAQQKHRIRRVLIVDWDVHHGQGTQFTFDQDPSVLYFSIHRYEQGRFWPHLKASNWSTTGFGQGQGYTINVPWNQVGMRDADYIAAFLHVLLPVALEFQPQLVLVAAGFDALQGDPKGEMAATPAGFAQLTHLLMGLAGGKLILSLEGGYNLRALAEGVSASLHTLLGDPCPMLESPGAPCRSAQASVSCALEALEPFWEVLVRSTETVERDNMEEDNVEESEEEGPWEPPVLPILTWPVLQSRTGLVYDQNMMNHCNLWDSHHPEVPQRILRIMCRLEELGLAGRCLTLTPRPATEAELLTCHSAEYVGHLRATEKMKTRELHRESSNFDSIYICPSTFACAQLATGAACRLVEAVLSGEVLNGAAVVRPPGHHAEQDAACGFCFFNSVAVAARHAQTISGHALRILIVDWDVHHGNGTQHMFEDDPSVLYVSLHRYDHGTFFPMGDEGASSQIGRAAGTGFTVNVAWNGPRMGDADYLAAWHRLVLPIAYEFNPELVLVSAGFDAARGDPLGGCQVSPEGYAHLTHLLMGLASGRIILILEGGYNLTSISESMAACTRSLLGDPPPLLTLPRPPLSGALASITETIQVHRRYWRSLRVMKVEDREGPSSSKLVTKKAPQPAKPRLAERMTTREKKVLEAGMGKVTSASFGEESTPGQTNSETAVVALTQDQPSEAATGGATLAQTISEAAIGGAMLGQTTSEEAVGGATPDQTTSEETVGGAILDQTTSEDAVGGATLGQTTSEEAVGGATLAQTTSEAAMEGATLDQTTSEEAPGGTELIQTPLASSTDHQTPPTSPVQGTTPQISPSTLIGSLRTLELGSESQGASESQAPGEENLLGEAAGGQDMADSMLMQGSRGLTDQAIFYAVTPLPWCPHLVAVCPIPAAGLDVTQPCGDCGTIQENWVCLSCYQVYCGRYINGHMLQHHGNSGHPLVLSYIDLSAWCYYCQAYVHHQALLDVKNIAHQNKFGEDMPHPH

Histone deacetylase 1 = Histone deacetylase 1 (Homo sapiens, UniProt Q13547); assay: Inhibition of recombinant human full length C-terminal His/FLAG-tagged HDAC1 expressed in baculovirus infected Sf9 insect cells using ZMAL as substrate incubated for 90 mins by fluorescence assay
Histone deacetylase 1, sequence (Q13547 whole entry): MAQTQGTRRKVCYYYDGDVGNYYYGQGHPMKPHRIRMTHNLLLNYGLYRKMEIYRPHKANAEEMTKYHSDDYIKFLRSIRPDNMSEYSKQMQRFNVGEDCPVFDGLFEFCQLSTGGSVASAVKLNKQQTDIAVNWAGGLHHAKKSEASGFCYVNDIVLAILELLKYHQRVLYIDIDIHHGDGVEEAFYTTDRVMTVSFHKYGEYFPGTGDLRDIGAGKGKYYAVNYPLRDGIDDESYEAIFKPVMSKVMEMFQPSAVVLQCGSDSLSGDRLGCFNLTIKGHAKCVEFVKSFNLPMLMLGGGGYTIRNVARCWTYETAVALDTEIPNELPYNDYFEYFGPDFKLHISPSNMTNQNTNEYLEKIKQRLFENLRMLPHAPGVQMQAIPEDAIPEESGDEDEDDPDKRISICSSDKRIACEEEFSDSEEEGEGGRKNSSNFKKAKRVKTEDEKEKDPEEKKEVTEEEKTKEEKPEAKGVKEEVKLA

CAL-27 = assay: Cytotoxicity against human CAL27 cells assessed as reduction in cell survival measured after 72 hrs by MTT assay; type: functional, cell-based; conditions: CAL-27, 72 h
[4] = biological target: T3, Class 1 histone deacetylase (Homo sapiens, UniProt Q13547+O15379+Q92769+Q9BY41); conditions: CAL-27
T3 sequence (O15379 whole entry, looked up, one chain of several): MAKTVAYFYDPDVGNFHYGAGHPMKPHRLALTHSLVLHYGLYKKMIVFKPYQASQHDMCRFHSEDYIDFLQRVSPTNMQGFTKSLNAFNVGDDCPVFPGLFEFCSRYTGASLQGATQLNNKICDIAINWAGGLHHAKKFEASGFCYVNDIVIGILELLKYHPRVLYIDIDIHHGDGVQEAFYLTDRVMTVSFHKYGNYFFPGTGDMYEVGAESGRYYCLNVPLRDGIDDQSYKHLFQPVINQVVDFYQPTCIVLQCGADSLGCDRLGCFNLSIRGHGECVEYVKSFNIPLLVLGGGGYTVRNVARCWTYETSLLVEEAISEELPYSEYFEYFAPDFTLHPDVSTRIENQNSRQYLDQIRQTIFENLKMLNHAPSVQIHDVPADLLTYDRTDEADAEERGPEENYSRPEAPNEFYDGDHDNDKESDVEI
T3 sequence (Q13547 whole entry, looked up, one chain of several): as the sequence (Q13547 whole entry) above
T3 sequence (Q92769 whole entry, looked up, one chain of several): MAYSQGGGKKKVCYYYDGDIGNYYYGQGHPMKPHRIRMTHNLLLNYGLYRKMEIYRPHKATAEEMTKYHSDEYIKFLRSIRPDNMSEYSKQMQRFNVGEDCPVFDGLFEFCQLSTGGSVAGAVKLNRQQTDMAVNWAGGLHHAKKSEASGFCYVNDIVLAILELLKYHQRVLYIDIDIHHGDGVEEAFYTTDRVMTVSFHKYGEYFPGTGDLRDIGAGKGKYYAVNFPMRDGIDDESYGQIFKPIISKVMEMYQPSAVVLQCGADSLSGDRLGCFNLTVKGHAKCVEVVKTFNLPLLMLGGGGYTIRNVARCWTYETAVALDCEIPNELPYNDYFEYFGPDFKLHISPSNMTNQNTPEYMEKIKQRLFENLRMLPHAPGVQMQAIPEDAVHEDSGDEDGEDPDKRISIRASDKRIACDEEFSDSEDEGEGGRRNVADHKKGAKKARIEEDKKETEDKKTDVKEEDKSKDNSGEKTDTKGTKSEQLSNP
Description: Inhibition of class 1 HDAC in human CAL27 cells assessed as potentiation of cisplatin-induced cytotoxicity by measuring combination index at 0.5 uM in presence of 0.32 uM cisplatin by MTT assay based Chou-Talalay analysis

[5] = biological target: T3, Class 1 histone deacetylase; conditions: CAL-27; remark: listed apart in the source
Description: Inhibition of class 1 HDAC in human CAL27 cells assessed as potentiation of cisplatin-induced cytotoxicity by measuring combination index at 0.5 uM in presence of 0.1 uM cisplatin by MTT assay based Chou-Talalay analysis

[6] = biological target: T3, Class 1 histone deacetylase; assay: Inhibition of class 1 HDAC in human CAL27 cells assessed as potentiation of cisplatin-induced cytotoxicity by measuring combination index at 1 uM in presence of […] cisplatin by MTT assay based Chou-Talalay analysis; type: cell-based; conditions: CAL-27
[7] = biological target: T3, Class 1 histone deacetylase; assay: Inhibition of class 1 HDAC in human Cal27CisR cells assessed as potentiation of cisplatin-induced cytotoxicity by measuring combination index at […] in presence of 10 uM cisplatin by MTT assay based Chou-Talalay analysis; type: cell-based
[8] = biological target: T3, Class 1 histone deacetylase; assay: Inhibition of class 1 HDAC in human Cal27CisR cells assessed as potentiation of cisplatin-induced cytotoxicity by measuring combination index at […] in presence of 1 uM cisplatin by MTT assay based Chou-Talalay analysis; type: cell-based
[9] = biological target: T3, Class 1 histone deacetylase; assay: (§1) Inhibition of class 1 HDAC in human CAL27 cells assessed as potentiation of cisplatin-induced cytotoxicity by measuring combination index at […] in presence of […] cisplatin by MTT assay based Chou-Talalay analysis; type: cell-based; conditions: CAL-27
[10] = biological target: T3, Class 1 histone deacetylase; assay: Inhibition of class 1 HDAC in human Cal27CisR cells assessed as potentiation of cisplatin-induced cytotoxicity by measuring combination index at 1 uM in presence of […] cisplatin by MTT assay based Chou-Talalay analysis; type: cell-based
[11] = biological target: T3, Class 1 histone deacetylase; assay: as §1; type: cell-based; conditions: CAL-27; remark: listed apart in the source

Row | SMILES | IC50 (Histone deacetylase 4) [µM] | IC50 (Histone deacetylase [1]) [µM] | IC50 (Histone deacetylase 8) [µM] | IC50 (Histone deacetylase [2]) [µM] | IC50 [3] [µM] | IC50 (Histone deacetylase 1) [µM] | IC50 (CAL-27) [µM] | CI [4] | CI [5] | CI [6] | CI [7] | CI [8] | CI [9] | CI [10] | CI [11]
1 | CN(C)c1ccc(C(=O)N(CC(=O)NCc2ccccc2)Cc2ccc(C(=O)Nc3ccccc3N)cc2)cc1 | > 10 | 0.48 | 9.21 | 0.11 | > 10 | 0.038 | 1.6 | 0.32 | 0.4 |  |  |  |  |  | 
2 | Cc1cc(C)cc(C(=O)N(CCCCCC(=O)Nc2cc(-c3ccccc3)ccc2N)CC(=O)NCc2ccccc2)c1 | > 10 | 1.43 | > 10 | 0.47 | > 10 | 0.057 | 18.9 |  |  | < 0.2 | < 0.2 | < 0.2 | 0.25 | < 0.2 | < 0.2
3 | Cc1cc(C)cc(C(=O)N(CC(=O)NCc2ccccc2)Cc2ccc(C(=O)Nc3cc(-c4ccccc4)ccc3N)cc2)c1 | > 10 | 1.72 | 3.13 | 0.63 | > 10 | 0.051 | 8.9 | 0.7 | 0.5 | 0.2 | 0.31 | < 0.2 | 0.14 | 0.81 | 0.34
